This note sets out measurements from patent publication US5071858A, “Antipsychotic benzothiopyranylamines” (Ciba-Geigy Corporation, priority 1990, dated 1991).

By EC50 is commonly meant the concentration giving half of the maximal effect.

Data set [1] concerns the target T1, serotonin-2 receptor (5HT-2 receptor) (Rattus norvegicus, UniProt P14842).
T1 construct: membrane preparations of frontal/parietal cortex from male Sprague-Dawley rats; from tissue; host or cells: frontal/parietal cortex membranes of male Sprague-Dawley rats
Kind of data set: serotonin-2 receptor binding assay (3H-ketanserin displacement). To be noted: frontal/parietal cortex membranes of male Sprague-Dawley rats. Here is the method:
The compounds described above are active e.g. in the following test system indicative of serotonin-2 receptor antagonism: The serotonin-2 receptor (also named 5-hydroxytryptamine-2 or 5HT-2 receptor) binding properties are determined in vitro by measuring the ability of said compounds to inhibit the specific binding of ^3 H-ketanserin in membrane preparations of frontal/parietal cortex from male Sprague-Dawley rats essentially as described by
Battaglia et al. in Life Sciences 33, 2011 (1983). IC50 values, representing the concentration of compound required to displace 50% of ^3 H-ketanserin, are determined by log-logit analysis of the specific binding data. Illustrative of the invention, the compound of example 1 is effective in the serotonin-2 receptor binding assay having an […] value of about 5 nM.

Data set [2] concerns Sidman avoidance responding. The data set can be described thus: Sidman avoidance model. The data set is classed as in vivo, squirrel monkey (Samiri sciureus). Conditions: squirrel monkeys. Here is the method:
The test is carried out as follows: Adult male squirrel monkeys (Samiri sciureus, 700-1200 g) are trained to press a lever to delay by 20 sec. the delivery of a brief electrical footshock. If the animal fails to respond within a 20 sec. interval, brief (0.5 sec.) shocks (5 mA) are delivered every 20 sec. until the animal again presses the lever. The total number of avoidance responses and avoidance failures (shocks received) are recorded during the test session, which lasts 4 hours. The monkeys are tested two days per week, the first day serving as a baseline control. The test compound is administered orally in a cornstarch vehicle 10 min. prior to the start of the test session. […] An approximate dose ratio of three between avoidance blockade and induction of dyskinesias is found for the compound of example 1.

T1 sequence (P14842 whole entry): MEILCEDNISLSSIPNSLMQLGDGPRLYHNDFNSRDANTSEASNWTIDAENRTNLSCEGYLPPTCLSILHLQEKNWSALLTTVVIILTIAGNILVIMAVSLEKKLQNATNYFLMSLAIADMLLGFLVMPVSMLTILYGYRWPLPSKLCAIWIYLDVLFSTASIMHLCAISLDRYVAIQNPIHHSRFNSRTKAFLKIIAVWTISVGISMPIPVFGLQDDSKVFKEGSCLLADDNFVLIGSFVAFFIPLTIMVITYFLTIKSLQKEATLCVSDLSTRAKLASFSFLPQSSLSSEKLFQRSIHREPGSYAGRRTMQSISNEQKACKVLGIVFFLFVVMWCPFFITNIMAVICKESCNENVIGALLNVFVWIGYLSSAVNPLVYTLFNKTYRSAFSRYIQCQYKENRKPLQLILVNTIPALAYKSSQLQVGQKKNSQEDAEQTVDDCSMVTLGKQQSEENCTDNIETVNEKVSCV

Take `O=C(c1ccc(F)cc1)C1CCN(CC2CSc3ccc(F)cc3C2)CC1` (centres unmarked) [Example 1, 1-[(6-Fluoro-3,4-dihydro-2H-1-benzothiopyran-3-yl)methyl]-4-piperidinyl p-fluorophenyl ketone]: the EC50 in data set [1] was around 5 nM. For the same compound, in data set [2], the “dose ratio between avoidance blockade and induction of dyskinesias” value is reported as “three”.
